Source: patent US20080293812A1, “Use of pamoic acid or one of its derivatives, or one of its analogues, for the preparation of a medicament for the treatment of diseases characterised by deposits of amyloid aggregates” (Sigma-Tau Industrie Farmaceutiche Riunite S. P.A.,, priority 2000, published 2008)
pEC50: −log10 of the molar value. Values belong to the compound of their own block, whether it stands above or below them.

How the values were obtained:
[1] = system: primary cortical neuronal cultures; assay: Inhibition of neurotoxicity induced by β-amyloid25-35 in primary neuronal cultures; type: cell-based, rat
Procedure: To verify the potential neuroprotective activity of sodium pamoate, primary cortical neuronal cultures obtained by microdissection of rat foetal brain at day 16-18 of gestation were used. The cerebral tissue was cultivated in the presence of foetal calf serum and the glial proliferation was inhibited by adding to the incubation medium the antimitotic agent cytosine arabinoside on days 3 and 5 (Andreoni et al. 1997 Exp. Neurology 148:281-287). The cell cultures were exposed to βA25-35 peptide for 5-7 days in the presence or absence of sodium pamoate. The neuroprotective action was evaluated in conditions of neurotoxicity induced by kainic acid to verify the specificity of action of sodium pamoate and its effective antiaggregant activity against the neurotoxic agent. The ability of sodium pamoate to protect the cells against degeneration was also evaluated in neuronal cells cultured in the absence of foetal calf serum in the culture medium. In this case, 24 hours after seeding, the medium was replaced with one without serum containing glutamine, insulin, transferrin, putrescin, progesterone, sodium selenite and Hepes.
Primary cultures of neurons of the […] were taken from the rat foetal brain on days 16-18 of gestation and cultured in foetal calf serum. On incubation days 3 and 5, glial proliferation was inhibited using cytosine arabinoside as an antimitotic agent.
The cultures were exposed to βA25-35 peptide at concentrations of 25 and 50 μM from the day following seeding for 5 to 7 days.
βA25-35 peptide was added to the cultures together with sodium pamoate which had equimolar concentrations or concentrations lower than those of the peptide itself.
The protection against neurotoxicity was evaluated using the colorimetric method and densitometric analysis with an image analyser.

βA1-42 peptide [2] = target: T1, βA1-42 peptide (Homo sapiens, UniProt P05067); assay: βA1-42 polymerization, Thioflavina T binding assay in 96 well plates; type: biochemical; conditions: concentrations between 0.8 and 100 μM, overnight at 37° C.; read-out: DE50 (the source's name)
T1 construct: βA1-42 peptide (1 mg/ml) was dissolved in H2O/CH3CN (1:1)
T1 sequence (P05067 672-713): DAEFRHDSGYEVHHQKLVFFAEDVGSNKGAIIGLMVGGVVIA
Procedure: The ST1641, ST1722, ST1859, ST1745, ST1800, ST1913 capability to counteract βA1-42 polymerization was evaluated using the Thioflavina “T” binding assay with the following procedure (M. A. Findeis, S. M. Molineaux; Methods in Enzymology 309, 487-488 (1999)): βA1-42 peptide (1 mg/ml) was dissolved in H2O/CH3CN (1:1), lyophilized, solubilized in DMSO+PBS and incubated at 37° C. for 8 days. The peptide was then sonicated and dissolved in PBS (1:5). 96 well plates were prepared with a solution of βA1-42 (40 μl/well) and ST testing compounds (50 μl/well, at concentrations between 0.8 and 100 μM). 50 μl of not aggregated βA1-42 was added after 15 minutes to each well and the plates were incubated overnight at 37° C. with agitation. 200 μl of a reaction mixture containing Thioflavina “T” (10 μM) and Na2HPO4×2H2O (50 μM) solution (pH 6.5) was then added to each well. The fluorescence was measured at 450 nm of excitation and 482 nm of emission with a 96 well fluorimetric plate reader within 60 seconds. At this experimental conditions fluorimetric measures were related to the amount of βA1-42 polymerized peptide.

βA1-42 peptide [3] = target: T1, βA1-42 peptide; assay: Antiaggregant effect on β-amyloid1-42 peptide, thioflavin T binding, 5 days incubation; type: biochemical
Procedure: The antiaggregant effects of sodium pamoate on βA1-42 peptide were evaluated by measuring thioflavin T binding according to the following procedure. βA1-42 peptide (cat. Bachem n° H-1368.0500) at a concentration of 0.22 mM was incubated at 37° C. in Tris buffer 100 mM pH 7.4, alone or in the presence of sodium pamoate, for 5 days. The molar ratios of the peptide to sodium pamoate were generally 1:8, 1:4 and 1:2. The solution was centrifuged at 13000 rpm for 5 minutes and the supernatant was eliminated. The precipitate was washed with 500 μl of H2O and centrifuged at 13000 rpm for 5 minutes. In the precipitate, the aggregate in fibril form was detected with 600 μl of thioflavin T (ThT) 2 μM dissolved in glycine-NaOH buffer 50 mM, pH 9.4. After 5 minutes' incubation 500 μl of samples were transferred to a quartz cuvette and the fluorimetric signal was determined at 420 nm excitation and 480 nm emission in a spectrophotofluorimeter. In these conditions the fluorimetric signal is proportional to the amount of amyloid aggregate (Le Vine, Methods in Enzymology, vol. 309 pp 274-284).

cerebellar granules = assay: Apoptosis of cerebellar granules induced by K+ deprivation; type: cell-based, rat; conditions: concentration of 10 μM
Procedure: Granules isolated from cerebellum of 8-day-old rats are differentiated biochemically and morphologically in approximately one week, becoming morphologically mature and with a glutamatergic interneuron phenotype (Gallo et al. 1982 PNAS 79:7919-7923). On depriving the culture medium of serum and reducing the extracellular concentration of potassium ions (25 mM) to the extent of bringing it down to a non-depolarising condition (5 mM), cell death by apoptosis is obtained in approximately 24 hours.
This experimental model made it possible to obtain a “self-fuelling” βA production system where neuronal apoptosis of the cerebellar granules brought about changes in the processing of the amyloid precursor APP, of such a nature as to favour the course of amyloidogenic metabolism. The increase in βA levels, in turn, favours programmed cell death. In this experimental setting, the potential efficacy of the study substances was measured in terms of cell survival at given times (24, 48 and 72 hours) after the reduction of KCl in the medium.
In primary cultures of cerebellar granules of 8-day-old rats, maintained in a culture medium containing KCl 25 mM, the cells were labelled with ^35S-methionine after 6 days in culture. […]
The protection against toxicity was assessed in terms of cell viability at 24, 48 and 72 hours.

β-amyloid25-35 peptide = target: T2, β-amyloid25-35 peptide (Homo sapiens, UniProt P05067); assay: Antiaggregant effect on β-amyloid25-35 peptide (centrifugation, settled solid); type: biochemical; conditions: sodium pamoate 1 mM, βA25-35 1 mM, phosphate buffer 100 mM pH 5, 24 hours ambient temperature
T2 construct: aqueous solution of βA25-35 2 mM (cat. Bachem n° H-1192.0001); purchased Bachem H-1192.0001
Procedure: To 250 μl of a solution consisting of sodium pamoate 2 mM and phosphate buffer 200 mM pH 5 were added 250 μl of an aqueous solution of βA25-35 2 mM (cat. Bachem n° H-1192.0001). 500 μl of a solution of sodium pamoate 1 mM, βA25-35 1 mM and phosphate buffer 100 mM pH 5 were thus obtained. The same process was carried out for the control sample where sodium pamoate was not present. After 24 hours at ambient temperature, the sample and control were centrifuged at 12000 rpm for 20 minutes, separating the settled solids from the supernatants. To the settled solids were added 250 μL of water. After 3 hours at ambient temperature the samples were centrifuged again at a 12000 rpm for 20 minutes.

βA1-42 peptide [4] = target: T1, βA1-42 peptide; assay: Resistance of β-amyloid1-42 peptide to trypsin digestion, HPLC; type: biochemical
Procedure: βA1-42 peptide was dissolved with 15 μl of NaOH 0.1 M. The solution was brought to pH 7.4 with 15 μl of TRIS buffer 100 mM to which were added 30 μl of buffer alone or 30 μl of buffer solution containing sodium pamoate. The final concentration of βA1-42 peptide was 0.22 mM, and that of sodium pamoate ranged from 0.055 to 1.76 mM, thus with a βA1-42 peptide:sodium pamoate ratio ranging from 4:1 to 1:8. The samples thus prepared were incubated at 37° C. for 5 days; in these conditions βA1-42 peptide formed aggregates in the form of fibrils modifying its structure from random-coil to β-sheet (Zagorski M. G. et al. 1999 “Methodological and Chemical Factors Affecting Amyloid β Peptide Amyloidogenicity” Methods in Enzymology 309:189-204). After 5 days' incubation, 24 μg of trypsin (Merck) were added to each sample, stirred and centrifuged for 1 minute at 13000 rpm; the samples were then left to incubate at 37° C. for 1 hour. When this period had elapsed, the mixture was centrifuged for 5 minutes at 13000 rpm, eliminating 50 μl of supernatant, and the precipitate was dissolved with 40 μl of HCOOH and 10 μl of H2O containing 0.1% of trifluoroacetic acid (TFA). At this point the sample was ready for quantitative HPLC analysis. The HPLC profile of the sample incubated with sodium pamoate was compared with that obtained with peptide alone, thereby quantifying the βA1-42 peptide.

[5] = target: T3, previously aggregated βA1-42 peptide (Homo sapiens, UniProt P05067); assay: Dissolution of aggregates of preformed β-amyloid1-42 in fibril form, thioflavin T binding; type: biochemical; conditions: peptide:pamoate ratio 1:8
T3 construct: βA1-42 peptide (cat. Bachem n° H-1368.0500) at a concentration of 0.22 mM; purchased Bachem H-1368.0500
T3 sequence (P05067 672-713): as above
Procedure: This experiment was conducted in order to assess the antiaggregant capacity of sodium pamoate on previously aggregated βA1-42 peptide, according to the following procedure. βA1-42 peptide was left to aggregate for 48 hours at 37° C. in the conditions described in Example 6. Sodium pamoate was added (peptide:pamoate ratio 1:8).

[6] = Capability to cross in vivo the blood brain barrier, 14C-labelled compound; design: species or system rats; conditions: i.v.
Procedure: ST1859 inhibited “in vitro” the beta amyloid aggregation and to test its permeability through the intact blood-brain barrier, ST1859, labelled with ^14C(S. A. 50 μCi/mM), was injected i.v. into normal rats at the dose of 18 μCi/rat. The brain and blood were up-taken 30′ after the injection, the blood was then centrifuged (3000 RPM×15 min) and serum obtained was diluted 1:20 with water while brain tissue was homogenized 1:20 w/v in water. To each sample was then added 4 ml of scintillation liquid for aqueous samples The amount of radioactivity was counted with an automatic β-counter (Packard 4600). Data reported in DPM (table 1) were normalized vs. weight or volume of each sample.

[7] = 18 μCi/rat, 30′ after the injection, mean

Compound: βA25-35: β-amyloid25-35 peptide (cat. Bachem n° H-1192.0001), used as neurotoxic agent (GSNKGAIIGLM; Amyloid-beta protein 42; UniProt P05067 696-706, looked up, fragment) [reference compound]
- percentage survival ([1]; βA25-35 50 μM alone): 16 % S

Compound: NCC(=O)Oc1ccc2ccccc2c1Cc1c(O)ccc2ccccc12 [ST1913, 2-({1-[(2-hydroxy-1-naphthyl)methyl]-2-naphthyl}oxy)-2-oxoethanaminium chloride]
- pEC50 (βA1-42 peptide [2]): 5.11

Compound: O=C(O)c1cc2ccccc2c(Cc2c([O-])c(C(=O)O)cc3ccccc23)c1[O-].[Na+].[Na+] [ST1641, sodium pamoate]
- efficacy in reducing thioflavin T binding as a function of incubation time (βA1-42 peptide [3]; from 1 to 5 days' incubation): progressive increase in efficacy
- reduction in the formation of βA1-42 aggregates in the form of fibrils as compared to controls (βA1-42 peptide [3]; βA1-42 0.22 mM, 37° C., 5 days, peptide:pamoate 1:8, 1:4, 1:2, dose-dependent): ≤ 70%
- protection against the damage induced by amyloid forming during the apoptotic process (cerebellar granules): 89%
- pEC50 (βA1-42 peptide [2]): 4.42
- protection against the toxicity induced by βA25-35 [1]: complete protection
- percentage survival ([1]; Sodium pamoate 25 μM + βA25-35 50 μM): 100 % S
- percentage survival ([1]; Sodium pamoate 25 μM alone): 88 % S
- inhibition of aggregation of βA25-35 peptide in fibrils (β-amyloid25-35 peptide): complete inhibition
- increase of trypsin hydrolysis of βA1-42 (βA1-42 peptide [4]; highest dose, peptide:pamoate ratio 1:8): more than 50%
- increase of trypsin hydrolysis of βA1-42 (βA1-42 peptide [4]; lowest dose, peptide:pamoate ratio 1:4): more than 40%
- activity in reducing thioflavin T binding ([5]; preformed aggregates): extremely active
- reduction in fluorescence as compared to controls ([5]; βA1-42 aggregated 48 hours at 37° C.): 70%

Compound: CC(=O)O[C@H](CC(=O)Oc1c(C(=O)O)cc2ccccc2c1Cc1c(O)c(C(=O)O)cc2ccccc12)C[N+](C)(C)C [ST1722, (2R)-2-(acetyloxy)-4-({3-carboxy-1-[(3-carboxy-2-hydroxy-1-naphthyl)methyl]-2-naphthyl}oxy)-N,N,N-trimethyl-4-oxo-1-butanaminium chloride]
- pEC50 (βA1-42 peptide [2]): 4.04

Continued, values first:

- pEC50 (βA1-42 peptide [2]): 5.10
Compound: CC(=O)O[C@H](CC(=O)Oc1ccc2ccccc2c1Cc1c(O)ccc2ccccc12)C[N+](C)(C)C [ST1745, (2R)-2-(acetyloxy)-4-({1-[(2-hydroxy-1-naphthyl)methyl]-2-naphthyl}oxy)-N,N,N-trimethyl-4-oxo-1-butanaminium chloride]

- pEC50 (βA1-42 peptide [2]): < 4.30
Compound: CCN(CC)CCOC(=O)c1cc2ccccc2c(Cc2c(O)c(C(=O)OCCN(CC)CC)cc3ccccc23)c1O [ST1800, 2-({4-[(3-{[2-(diethylammonio)ethoxy]carbonyl}-2-hydroxy-1-naphthyl)methyl]-3-hydroxy-2-naphthoyl}oxy)-N,N-diethylethanaminium dichloride]

- Brain radioactivity [6, 7]: 35.643 DPM/g
- Serum radioactivity [6, 7]: 29.776 DPM/ml
- Serum/Brain [6, 7]: 0.833
- ability to cross the blood brain barrier ([6]; normal rats): able to cross the blood brain barrier
- pEC50 (βA1-42 peptide [2]): 5.27
Compound: Oc1ccc2ccccc2c1Cc1c(O)ccc2ccccc12 [ST1859, 1,1′-methylene-di(2-naphthol)]
